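1) Cells in 96-well plates. 2) Compound, 48 h, 5 concentrations. 3) Linear interpolation between surrounding doses. 4) Unreached endpoint = highest concentration. GI50 marks 50% less growth.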 Activity calls are given as the source filed them. Rule as the data show it: active = GI50 up to about 1.1 µM and inactive = higher.
Key:
Assay in all cases: inhibition of tumour cell growth, NCI panel, 48 h
NCI-H460 = system: NCI-H460
SN12C = system: SN12C
UO-31 = system: UO-31
SF-268 = system: SF-268
OVCAR-5 = system: OVCAR-5
CCRF-CEM = system: CCRF-CEM
SR = system: SR
SF-295 = system: SF-295
HCT-116 = system: HCT-116
KM12 = system: KM12
LOX IMVI = system: LOX IMVI
SK-OV-3 = system: SK-OV-3
SNB-19 = system: SNB-19
UACC-257 = system: UACC-257
NCI-H23 = system: NCI-H23
K562 = system: K562

Measured: GI50

S=C1OC2C3C4CC5C3C(O1)C1C5C4C21 (stereo not drawn)
inactive: NCI-H460 58.5 µM | SN12C > 100 µM | UO-31 > 100 µM | SF-268 > 100 µM | OVCAR-5 > 100 µM | CCRF-CEM > 100 µM | SR > 100 µM | SF-295 > 100 µM | HCT-116 45.2 µM | KM12 > 100 µM | LOX IMVI 74 µM | SK-OV-3 > 100 µM | SNB-19 > 100 µM | UACC-257 > 100 µM

C=C=C(C(=O)OC)[S+]([O-])c1ccc([N+](=O)[O-])cc1[N+](=O)[O-] (stereo not drawn)
inactive: NCI-H460 > 66.7 µM | SN12C 22.4 µM | UO-31 43.4 µM | SF-268 39 µM | OVCAR-5 > 82.4 µM | CCRF-CEM 12 µM | SR 14.1 µM | SF-295 > 92.7 µM | HCT-116 21.4 µM | KM12 33.7 µM | LOX IMVI 21.5 µM | SK-OV-3 > 84.7 µM | NCI-H23 53.8 µM | SNB-19 56 µM | K562 20 µM | UACC-257 34.9 µM

O=C(O)CSc1nnc(-c2ccco2)[nH]1
inactive: NCI-H460 > 100 µM | SN12C > 100 µM | UO-31 > 100 µM | OVCAR-5 > 100 µM | CCRF-CEM > 100 µM | SF-295 > 100 µM | HCT-116 > 100 µM | KM12 > 100 µM | LOX IMVI > 100 µM | SK-OV-3 > 100 µM | NCI-H23 > 100 µM | SNB-19 > 100 µM | K562 > 100 µM | UACC-257 > 100 µM

O=C(Nc1ccc(Br)cc1)C(=O)C(C(=O)c1ccccc1F)C1OC(=O)c2ccccc21 (stereo not drawn)
inactive: NCI-H460 31.8 µM | SN12C 27.9 µM | UO-31 22.3 µM | SF-268 24.9 µM | OVCAR-5 48 µM | CCRF-CEM 18.6 µM | HCT-116 17.7 µM | KM12 31.8 µM | LOX IMVI 18.4 µM | SK-OV-3 27.5 µM | NCI-H23 17.9 µM | SNB-19 20.3 µM | K562 31 µM | UACC-257 24.8 µM

CCn1c(CSc2nc(-c3ccccc3)c(-c3ccccc3)[nH]2)n[nH]c1=S
inactive: NCI-H460 > 100 µM | SN12C > 100 µM | UO-31 > 100 µM | SF-268 > 100 µM | OVCAR-5 > 100 µM | CCRF-CEM > 100 µM | SR > 100 µM | SF-295 > 100 µM | HCT-116 > 100 µM | KM12 51.4 µM | LOX IMVI > 100 µM | SK-OV-3 > 100 µM | NCI-H23 > 100 µM | SNB-19 > 100 µM | UACC-257 > 100 µM

O=C(c1ccc(Cl)cc1)c1ccc(OCCCOc2ccc(C(=O)c3ccc(Cl)cc3)cc2)cc1
inactive: NCI-H460 > 100 µM | SN12C > 100 µM | SF-268 > 100 µM | OVCAR-5 > 100 µM | CCRF-CEM > 100 µM | SR > 100 µM | SF-295 > 100 µM | HCT-116 > 100 µM | KM12 > 100 µM | LOX IMVI > 100 µM | SK-OV-3 > 100 µM | NCI-H23 > 100 µM | SNB-19 > 100 µM | K562 > 100 µM | UACC-257 > 100 µM

CC12N=NN(c3ccc([N+](=O)[O-])cc3)C1(O)c1ccccc1C2=O (stereo not drawn)
inactive: NCI-H460 > 100 µM | SN12C > 100 µM | UO-31 > 100 µM | SF-268 > 100 µM | SR > 100 µM | SF-295 > 100 µM | HCT-116 > 100 µM | KM12 > 100 µM | LOX IMVI > 100 µM | SK-OV-3 > 100 µM | NCI-H23 > 100 µM | SNB-19 > 100 µM | UACC-257 > 100 µM

COc1ccc(OC)c(NC(=O)CCC/C(CC(=O)c2ccc(O)c(OC)c2)=N\NC(=O)C[N+](C)(C)C)c1
inactive: NCI-H460 > 100 µM | SN12C > 100 µM | UO-31 > 100 µM | SF-268 > 100 µM | OVCAR-5 > 100 µM | CCRF-CEM > 100 µM | SR > 100 µM | SF-295 > 100 µM | KM12 > 100 µM | LOX IMVI > 100 µM | SK-OV-3 > 100 µM | NCI-H23 > 100 µM | SNB-19 > 100 µM | K562 > 100 µM | UACC-257 > 100 µM

O=C(c1nc2ccc(Cl)cc2[nH]c1=O)C(O)c1ccco1 (stereo not drawn)
inactive: NCI-H460 57.9 µM | UO-31 42.9 µM | SF-268 98.9 µM | OVCAR-5 > 100 µM | CCRF-CEM 1.37 µM | SF-295 > 100 µM | HCT-116 46.7 µM | LOX IMVI 36.6 µM | SK-OV-3 > 100 µM | NCI-H23 > 100 µM | SNB-19 > 100 µM | K562 22.1 µM | UACC-257 > 100 µM

COc1ccc(O)c(C(=O)CCC(=O)O)c1
inactive: NCI-H460 > 100 µM | SN12C > 100 µM | UO-31 > 100 µM | SF-268 > 100 µM | OVCAR-5 > 100 µM | CCRF-CEM > 100 µM | SR > 100 µM | SF-295 > 100 µM | KM12 > 100 µM | LOX IMVI > 100 µM | SK-OV-3 > 100 µM | NCI-H23 > 100 µM | SNB-19 > 100 µM | K562 > 100 µM | UACC-257 15.6 µM

[O-][S+]1CSCS1 (stereo not drawn)
inactive: SN12C > 100 µM | UO-31 > 100 µM | SF-268 > 100 µM | OVCAR-5 > 100 µM | CCRF-CEM > 100 µM | SR > 100 µM | SF-295 > 100 µM | HCT-116 > 100 µM | KM12 > 100 µM | LOX IMVI > 100 µM | SK-OV-3 > 100 µM | NCI-H23 > 100 µM | SNB-19 > 100 µM | K562 > 100 µM | UACC-257 > 100 µM

CCn1cnc2c(=S)nc(N)[nH]c21
inactive: NCI-H460 > 100 µM | SN12C > 100 µM | UO-31 > 100 µM | SF-268 > 100 µM | CCRF-CEM > 100 µM | SR > 100 µM | SF-295 > 100 µM | HCT-116 > 100 µM | KM12 > 100 µM | LOX IMVI > 100 µM | SK-OV-3 > 100 µM | NCI-H23 > 100 µM | SNB-19 > 100 µM | K562 > 100 µM | UACC-257 > 100 µM

CCCCCC(=O)Nc1nc(O)c2[nH]cnc2n1
inactive: NCI-H460 > 100 µM | SN12C > 100 µM | UO-31 > 100 µM | SF-268 > 100 µM | OVCAR-5 > 100 µM | CCRF-CEM > 100 µM | SR > 100 µM | SF-295 > 100 µM | HCT-116 > 100 µM | KM12 > 100 µM | SK-OV-3 > 100 µM | NCI-H23 > 100 µM | SNB-19 > 100 µM | K562 > 100 µM | UACC-257 > 100 µM

C#Cc1cccc(N2C(=O)CC(=P(c3ccccc3)(c3ccccc3)c3ccccc3)C2=O)c1
inactive: NCI-H460 97.5 µM | SN12C > 100 µM | UO-31 > 100 µM | SF-268 62.1 µM | OVCAR-5 57 µM | CCRF-CEM 50.1 µM | SR 39.4 µM | SF-295 > 100 µM | HCT-116 32.6 µM | SK-OV-3 > 100 µM | NCI-H23 40.7 µM | SNB-19 69 µM | K562 35.4 µM | UACC-257 51.4 µM

Reference: ChEMBL document CHEMBL1201862, “PubChem BioAssay data set” (2004)
